The results in this text go back to PubChem BioAssay (NCI).

Some test systems named below: MDA-MB-435; NCI-H226 lung; EKVX NSCLC; SN12C renal; PC-3 prostate; SF-268 CNS; SK-MEL-5 melanoma; SR leukemia; RPMI-8226 leukemia; HCC-2998 colon.
Assay in all cases: NCI tumour cell line growth inhibition, 48 h

Structures are written as SMILES.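 Cells were grown in 96-well plates and exposed to each compound for 48 hours at five concentrations; endpoints were interpolated linearly between bracketing concentrations, or set to the highest concentration if not reached. The concentration for full growth arrest is given as TGI.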

`CCN(CC)Cc1cc(N=Nc2c(O)ccc3c(N=Nc4ccc(O)c(CN(CC)CC)c4)c(O)ccc23)ccc1O`: the TGI in the experiment with MDA-MB-435 was 20.8 µM; in the experiment with NCI-H226 lung it was 22.7 µM; in the experiment on EKVX NSCLC it was 21.2 µM; with SN12C renal, 17.6 µM; in the experiment on PC-3 prostate, over 41.1 µM; in the experiment on SF-268 CNS it was 33.8 µM. Further, the TGI is 7.42 µM in the experiment on SK-MEL-5 melanoma, 8.53 µM in the experiment on SR leukemia, 19 µM in the experiment on RPMI-8226 leukemia and 5.18 µM in the experiment with HCC-2998 colon.
For `CCO/N=C\c1ccc2oc(-c3ccccc3)cc(=O)c2c1`, the TGI in the experiment with MDA-MB-435 is 2.49 µM; in the experiment with NCI-H226 lung, 7.01 µM; with EKVX NSCLC, 36.8 µM; with SN12C renal, 11.5 µM; in the experiment on PC-3 prostate, 20.4 µM; with SF-268 CNS it was 24.2 µM. In addition, the TGI was 5.54 µM with SK-MEL-5 melanoma, 1.99 µM in the experiment on SR leukemia, 9.42 µM in the experiment with RPMI-8226 leukemia and 6.08 µM with HCC-2998 colon.
Consider `CCOC(=O)NC(Nc1ccc(F)cc1F)(C(F)(F)F)C(F)(F)F`, for which the TGI in the experiment with MDA-MB-435, with NCI-H226 lung, in the experiment with EKVX NSCLC, with SN12C renal, in the experiment with PC-3 prostate and in the experiment on SF-268 CNS was over 100 µM throughout. For the same compound, the TGI in the experiment with SK-MEL-5 melanoma, with SR leukemia, in the experiment on RPMI-8226 leukemia and in the experiment with HCC-2998 colon was over 100 µM in each case.
With `CC(C#N)(NO)C(C)(C#N)NO` (stereo not drawn), the TGI with MDA-MB-435, in the experiment with NCI-H226 lung, with EKVX NSCLC, in the experiment on SN12C renal, with PC-3 prostate and with SF-268 CNS was over 100 µM throughout. Moreover, the TGI in the experiment on SK-MEL-5 melanoma, in the experiment on SR leukemia, in the experiment with RPMI-8226 leukemia and in the experiment with HCC-2998 colon was over 100 µM each time.
Consider `COc1ccc(SCc2cc(OC)ccc2OC)cc1`, for which the TGI was 13 µM in the experiment with MDA-MB-435; over 100 µM with NCI-H226 lung; over 100 µM with EKVX NSCLC; over 100 µM with SN12C renal; over 100 µM in the experiment with PC-3 prostate; over 100 µM with SF-268 CNS. Besides, the TGI is 98.9 µM in the experiment on SK-MEL-5 melanoma, over 100 µM in the experiment on SR leukemia, over 100 µM in the experiment on RPMI-8226 leukemia and 37 µM with HCC-2998 colon.
`Cc1[nH]c(=O)nc(N/N=C/c2c3ccccc3c(Cl)c3ccccc23)c1C(=O)Nc1ccc(Cl)cc1`: the TGI in the experiment on MDA-MB-435, in the experiment with NCI-H226 lung, with SN12C renal, in the experiment on PC-3 prostate, in the experiment on SF-268 CNS and in the experiment with SK-MEL-5 melanoma was over 100 µM throughout. In addition, the TGI in the experiment with SR leukemia, in the experiment with RPMI-8226 leukemia and in the experiment on HCC-2998 colon was over 100 µM in each case.
On to `O=[N+]([O-])c1ccc2c(c1)nc1n2C(c2c(F)cccc2F)SC1` (stereo not drawn), for which the TGI in the experiment on MDA-MB-435, in the experiment with EKVX NSCLC, in the experiment with SN12C renal, with PC-3 prostate, in the experiment on SF-268 CNS and in the experiment on SK-MEL-5 melanoma was over 100 µM throughout. Further, the TGI in the experiment on SR leukemia, in the experiment with RPMI-8226 leukemia and in the experiment with HCC-2998 colon was over 100 µM each time.
As for `COC(=O)c1ccc(OCCn2nnc(C(=O)NN)c2C(=O)NN)cc1`, the TGI in the experiment with MDA-MB-435, in the experiment with EKVX NSCLC, in the experiment on SN12C renal, in the experiment on PC-3 prostate, with SK-MEL-5 melanoma and in the experiment on SR leukemia was over 100 µM throughout. Besides, the TGI in the experiment on RPMI-8226 leukemia and in the experiment on HCC-2998 colon was over 100 µM throughout.
In the case of `Cc1cc(=O)[nH]c2cc(NC(=O)C(C)NC(=O)C(C)NC(=O)C(C)NC(=O)OC(C)(C)C)ccc12` (stereo not drawn), the TGI in the experiment on MDA-MB-435, with NCI-H226 lung, in the experiment on EKVX NSCLC, in the experiment on SN12C renal, in the experiment with PC-3 prostate and with SF-268 CNS was over 15 µM each time. Besides, the TGI in the experiment on SK-MEL-5 melanoma, in the experiment with SR leukemia and with HCC-2998 colon was over 15 µM throughout.
Regarding `O=C(Cn1c2ccc(Br)cc2c2nc3ccccc3nc21)NCc1ccccc1`, the TGI in the experiment with MDA-MB-435, in the experiment on NCI-H226 lung, in the experiment with SN12C renal, in the experiment on PC-3 prostate, in the experiment on SF-268 CNS and with SK-MEL-5 melanoma was over 100 µM each time. The TGI in the experiment on SR leukemia, in the experiment with RPMI-8226 leukemia and in the experiment on HCC-2998 colon was over 100 µM throughout.
For `CC(C)CC1c2[nH]c3ccccc3c2C[C@H]2C(=O)NC(Cc3c[nH]c4ccccc34)C(=O)N12` (stereo partly drawn), the TGI in the experiment with MDA-MB-435 came to 34.4 µM; with NCI-H226 lung, 50 µM; in the experiment with EKVX NSCLC it was 45.4 µM; with SN12C renal, 31.1 µM; with PC-3 prostate, 41.9 µM; with SF-268 CNS it was 56.3 µM. The TGI in the experiment on SK-MEL-5 melanoma was found to be 26 µM; in the experiment on SR leukemia, 45.5 µM; in the experiment with RPMI-8226 leukemia, 48.7 µM.
